Source: patent US20170239253A1, “COMPOSITIONS AND METHODS FOR THE REDUCTION OR PREVENTION OF NON-ALCOHOLIC STEATOHEPATITIS (NASH)” (NuSirt Sciences, Inc., priority 2015, published 2017)

Legend:
[1] = 25 mg icariin/kg diet; corresponding to 4 mg/kg body weight/day; cited from earlier work
[2] = test system: C57Bl/6 mice on high fat diet (HFD); assay: Histological analysis of hepatic lipid accumulation (hepatic steatosis), high fat diet model
Description: (§1) Chronic high fat diet was used in C57Bl/6 mice as an experimental model of hepatic steatosis. Male C57/BL6 mice were either maintained on standard low-fat diet (control; LFD; 10% energy from fat) or placed on a high fat (HFD; 60% energy from fat, Research Diets #D12492, Research Diets, Inc., New Brunswick, N.J.) at six weeks of age to induce obesity and fatty infiltration of the liver. […] Animals fed with LFD have normal cellular structure in liver cells. […] Animals were then randomized to treatments for an additional six weeks, with 10 animals per group, as specified in the following examples.
(§2) The 1.5 g/kg diet of metformin corresponds to a therapeutically effective dose of metformin in humans.
(§3) Following induction of hepatic steatosis as described in Example 1, animals were treated for six weeks according to the following treatment groups as depicted in Table 22:
(§4) In this study, the effects of metformin alone (therapeutic dose) vs. combination therapy with sub-therapeutic amounts of metformin and HMB on liver weight and hepatic lipid accumulation were assessed. Following induction of hepatic steatosis as described in Example 1, animals were treated for six weeks according to the following treatment groups as depicted in Table 23:

[3] = test system: C57Bl/6 mice on high fat diet (HFD); assay: Prophylactic treatment concurrent with high fat diet: liver mass and hepatic lipid accumulation; format: in vivo; conditions: six weeks, metformin alone 1.5 g/kg
Procedure: In this study, the prophylactic effects of metformin alone, and various combinations of metformin, leucine, and resveratrol on liver mass and hepatic steatosis are assessed. C57Bl/6 mice are assigned to the following experimental groups as depicted in Table 25: Drug treatments and high fat diet feeding (as described in Example 1) are initiated on the same day and are carried out for six weeks. The effects of the treatments and diet on liver mass and hepatic lipid accumulation are assessed as described in the preceding examples. […] In this study, the prophylactic effects of metformin alone, and various combinations of metformin, HMB, and resveratrol on liver mass and hepatic steatosis are assessed. C57Bl/6 mice are assigned to the following experimental groups as depicted in Table 26: Drug treatments and high fat diet feeding (as described in Example 1) are initiated on the same day and are carried out for six weeks. The effects of the treatments and diet on liver mass and hepatic lipid accumulation are assessed as described in the preceding examples. […] In this study, the prophylactic effects of sub-therapeutic leucine alone, and co-administration of leucine and the PDE5-specific inhibitor icariin on liver mass and hepatic steatosis are assessed. […] The effects of the treatments and diet on liver mass and hepatic lipid accumulation are assessed as described in the preceding examples.

[4] = test system: C57Bl/6 mice on high fat diet (HFD); conditions: Example 3; metformin alone 1.5 g/kg diet; leucine 24 g/kg + metformin 0.5 g/kg
Description: Chronic high fat diet was used in C57Bl/6 mice as an experimental model of hepatic steatosis. Male C57/BL6 mice were either maintained on standard low-fat diet (control; LFD; 10% energy from fat) or placed on a high fat (HFD; 60% energy from fat, Research Diets #D12492, Research Diets, Inc., New Brunswick, N.J.) at six weeks of age to induce obesity and fatty infiltration of the liver. […] Animals were then randomized to treatments for an additional six weeks, with 10 animals per group, as specified in the following examples.
In this study, the effects of metformin alone (therapeutic dose) vs. combination therapy with sub-therapeutic amounts of metformin and leucine on liver weight and hepatic lipid accumulation were assessed.

[5] = test system: C57Bl/6 mice on high fat diet (HFD); assay: Liver weight after six weeks treatment in chronic high fat diet model of hepatic steatosis; format: in vivo
Description: as §1, §2, §3, §4

Row | Molecule | effect on liver mass or hepatic lipid accumulation [1] | hepatic steatosis (histology) ([2]; Example 2, HFD mice, six weeks, metformin alone at therapeutic dosage, combinations at sub-therapeutic dosages) | hepatic steatosis (histology) ([2]; Example 3, metformin alone therapeutic, leucine + metformin 0.5 g/kg) | HFD-induced increase in liver mass and hepatic lipid accumulation (prophylactic) ([3]; Example 6, treatment and HFD started same day, leucine 24 g/kg + metformin 0.15-0.50 g/kg ± resveratrol 12.5 mg/kg diet) | HFD-induced increase in liver mass and hepatic lipid accumulation (prophylactic) ([3]; Example 7, CaHMB 2 g/kg + metformin 0.15-0.50 g/kg ± resveratrol 12.5 mg/kg diet) | effect on liver triglycerides [4] | effect on liver weight ([5]; Example 2, metformin alone 1.5 g/kg diet, leucine 24 g/kg diet, resveratrol 12.5 mg/kg diet) | effect on liver weight ([5]; Example 3, metformin alone 1.5 g/kg diet, leucine 24 g/kg + metformin 0.25 and 0.5 g/kg, p<0.02 vs. HFD) | effect on liver weight ([5]; Example 4, metformin alone 1.5 g/kg diet, CaHMB 2 g/kg diet + metformin 0.25 and 0.5 g/kg, p<0.03)
1 | COc1ccc(-c2oc3c(CC=C(C)C)c(O[C@@H]4O[C@H](CO)[C@@H](O)[C@H](O)[C@H]4O)cc(O)c3c(=O)c2O[C@@H]2O[C@@H](C)[C@H](O)[C@@H](O)[C@H]2O)cc1 [icariin] | no effect | – | – | – | – | – | – | – | –
2 | metformin | – | partial reversal of the effects of HFD on hepatic steatosis | partially reversed hepatic steatosis | attenuates the HFD-induced increase in liver mass and hepatic lipid accumulation | attenuates the HFD-induced increase in liver mass and hepatic lipid accumulation | partially reversed the effect of high fat diet on liver triglycerides | partially reverse the effect of high fat diet on liver weight | reversed the effect of high fat diet on liver weight back to control levels | reversed the effect of high fat diet on liver weight back to control levels
